These results are taken from US20230219898A1, “COMPOUNDS AND METHODS FOR BLOCKING APOPTOSIS AND INDUCING AUTOPHAGY” (President and Fellows of Harvard College, priority 2020, published 2023).

One assay has as its target T1, GST-TRADD-C (Homo sapiens, UniProt Q15628).
T1 construct: cDNA encoding GST-tagged hTRADD (Full length or aa180-312); made in house; host or cells: mammalian cells (pEBG plasmid)
Kind of assay: Thermal shift assay with GST-TRADD-C. Type of assay: binding. The conditions noted are these: GST-TRADD-C 50 μM, compound 250 μM. As for the experimental part:
To determine stability, purified proteins were made to a final concentration of […]. SYPRO Orange dye was added to the protein to make a final concentration of 2×. Compounds were added in the mix with a final concentration of 250 μM or as indicated and incubated at 4C for 1 h. The experiments were performed in 384-well plates specific for real-time PCR instrument with a total volume of 20 μl/well. The assay plate was covered with a sheet of optically clear adhesive to seal each well. The assay plate was centrifuged at 800×g for 2 min at 25C to collect solutions in the bottom of the well and remove bubbles. The assay plate was placed into the Applied Biosystems QuantStudio 6 Real-Time PCR System. The reaction was run from 25C, ramping up in increments of 0.05° C./s to a final temperature of 95C with fluorescence detection throughout the experiment to generate a dataset. Melting temperature of the protein (Tm) was determined by performing non-linear fitting of the dataset to a Boltzmann Sigmoidal curve in GraphPad Prism with the following equation: Y=Bottom+(Top-Bottom)/[1+exp(Tm-X/Slope)], where Y=fluorescence emission in arbitrary units; X=temperature; Bottom=baseline fluorescence at low temperature; Top=maximal fluorescence at top of the dataset; Slope=describes the steepness of the curve, with larger values denoting shallower curves.

A further assay has as its target T2, TRADD-N (Homo sapiens, UniProt Q15628).
T2 construct: expression constructs encoding Flag-TRADD-N(1-179) and HA-TRADD-C(180-312); His (N); made in house
T2 sequence (Q15628 1-179): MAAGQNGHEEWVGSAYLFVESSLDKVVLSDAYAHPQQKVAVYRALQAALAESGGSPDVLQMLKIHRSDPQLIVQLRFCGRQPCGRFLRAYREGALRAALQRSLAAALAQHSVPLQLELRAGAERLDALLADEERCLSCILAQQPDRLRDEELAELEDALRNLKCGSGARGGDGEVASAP
The experiment in a line: STD-NMR binding to TRADD-N. Conditions: 1 mM compound, 13 μM TRADD-N. As for the experimental part:
The on-resonance irradiation of TRADD-N was performed at a chemical shift of −0.5 ppm, whereas the off-resonance irradiation was conducted at 37 ppm. Spectra were acquired using the following parameters: spectral window of 6.4 kHz, number of scans at 320, acquisition time of 2 s, and repetition time of 3 s. The decrease in signal intensity in STD spectrum, resulting from the transfer of saturation from the protein to the ligand, is evaluated by subtracting the on-resonance spectrum from the off-resonance spectrum. This subtraction yields a positive signal from a bound ligand. The asterisks indicate the signals of the compounds.
This saturation quickly propagates throughout the protein by spin diffusion and is transferred to the ligand, which only occurs if it is bound, leading to reduced intensities of the ligand. The STD spectra were acquired on a 400 MHz spectrometer (ICCB-19 and Apt-1) or 800 MHz spectrometer (ICCB-19i). The samples for STD NMR were prepared as 13 μM TRADD-N or TRADD-N(G121A) with 1 mM Apt-1, ICCB-19 or ICCB-19i in 0.5 mL of PBS in D2O (10%). […] The decrease in signal intensity in STD spectrum, resulting from the transfer of saturation from the protein to the ligand, is evaluated by subtracting the on-resonance spectrum from the off-resonance spectrum.

The test system of assay [1] is cleaved caspase-3 in Jurkat cells. Kind of assay: Cleaved caspase-3 immunoblot in Velcade-treated cells. Type of assay: cell-based, human. The conditions noted are these: FIG. 9a, 9b; Jurkat and SH-SY5Y cells, 10 μM, 12 h and 24 h. As for the experimental part:
The levels of cleaved caspase-3 were determined by immunoblotting.
Specifically, wild-type MEF cells were pretreated for 1 h with 10 uM of the specified compounds, followed by 2 h treatment with 0.5 uM 5z-7-oxozeaenol and 1 ng/mL TNFα. Cell lysates were prepared and immunoblotted for cleaved-caspase 3 (CC3). Wild-type Jurkat cells were also pretreated for 1 h with 10 uM of the specified compounds, followed by 12 h treatment with 50 nM Velcade. Cell lysates were prepared and immunoblotted for cleaved-caspase 3 (CC3).
(A western blot detects proteins with antibodies after separation by electrophoresis.)

For assay [2], the system named is Beclin 1/Vps34 kinase complex. Kind of assay: Vps34 lipid kinase assay on Beclin 1/Vps34 complex from treated HEK293T cells. Type of assay: cell-based. The conditions noted are these: 10 μM, 6 h. On the procedure:
FIG. 6j Beclin 1/Vps34 kinase complex isolated from Flag-Beclin 1 transfected HEK293T cells treated with ICCB-19, Apt-1, or ICCB-19i (10 μM) for 6 h. PI3P kinase activity was measured by in vitro lipid kinase assay using ADP-Glo Kinase Assay Kit. Wortmannin (10 μM) was used as a control to inhibit Vps34 kinase activity. Mean±s.d. from technical quadruplicates (n=4), representative of 3 independent experiments. One-way ANOVA, post hoc Dunnett's tests. ***P=0.0003; ***P<0.001 (left to right).
WT mice (n=10, male, 8 weeks of age) were injected intravenously via the tail vein with mTNFα (9.5 μg/mouse) after an intraperitoneal injection of Apt-1 (20 mg/kg) 30 min before. Control mice (n=9) received an equal amount of vehicle 30 min before mTNFα challenge. Kaplan Meier survival curve was determined. 25. Vps34 lipid kinase assay HEK293T cells were transfected with Flag-Beclin 1 for 18 h and then treated with ICCB-19, ICCB-19i, Apt-1 (10 μM) for another 6 h. Flag-Beclin 1 was immunoprecipitated by anti-Flag to isolate Beclin 1/Vps34 complex. Immunoprecipitated beads were added with sonicated phosphatidylinositol (1 μl of 5 mg) and ATP (1 μl of 10 mM) in 30 μl reaction buffer (40 mM Tris (pH 7.5), 20 mM MgCl2, 1 mg/ml BSA) for 30 min at room temperature. […] The conversion of ATP into ADP levels was measured by an ADP-Glo Kinase Assay Kit (Promega) according to the manufacturer's instructions.

SMILES strings stand for the structures.

T1 sequence (Q15628 180-312): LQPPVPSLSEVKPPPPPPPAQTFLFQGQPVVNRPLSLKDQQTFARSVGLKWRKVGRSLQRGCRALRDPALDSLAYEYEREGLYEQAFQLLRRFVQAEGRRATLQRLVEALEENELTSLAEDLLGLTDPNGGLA

For `CN1CCN=C1SC(C(=O)NC1CCCCCC1)c1ccccc1` (centres unmarked) [Compound 30], the “binding to GST-TRADD-C” value on GST-TRADD-C is listed as “does not bind”. Besides, the “binding with TRADD-N by STD-NMR” value on TRADD-N is on record as “could bind with TRADD-N”. Moreover, the “cleavage of caspase-3 downstream of Velcade-induced proteasomal stress” value in assay [1] was “blocked”. Further, the “Vps34 lipid kinase activity” value in assay [2] is recorded as “increased Vps34 lipid kinase activity”.
For `O=C(CSC1=NCCN1)NC1CCCCCC1` [ICCB-19] the same measures were “does not bind”, “could bind with TRADD-N”, “blocked” and “increased Vps34 lipid kinase activity”.
